Results as given in patent US9498483B2, “2,3,5-trisubstituted thiophene compounds and uses thereof” (priority 2010, dated 2016).

How the values were obtained:
HCV polymerase = target: T1, HCV polymerase (Hepatitis C virus genotype 1b, UniProt Q9WMX2); assay: Polymerase assay of Biological Example 1 (IC50 values of Table 3); assay type: biochemical; conditions: IC50 values of Table 3, polymerase assay of Biological Example 1; read-out: NS5B-enzyme3
T1 construct: (His)6 (C); made in house; host or cells: XL-1 cells (E. coli, by own knowledge)

[1] = test system: HCV replicon I389luc-ubi-neo/NS3-3′/ET in ET (Huh-lucubineo-ET) cells; assay: Replicon assay (Biological Example 2), luciferase readout; assay type: cell-based; conditions: Hepatitis C virus
Summary of the method: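 EC50 values come from Hill fits of % inhibition of replicon-driven firefly luciferase, relative to no-compound wells. Compounds were serially diluted (10 points, 3-fold, 0.1 nM–50 μM final, 0.5% DMSO) onto ET replicon cells and read after 48 h.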

[2] = ET cells, luciferase activity 48 hours after compound

| Compound | IC50 (HCV polymerase) [nM] | IC50 [1, 2] [nM] | IC50 ([1]; between 100 nM and 5.0 uM) [nM] |
| --- | --- | --- | --- |
| CC(C)(C)C#Cc1cc(N2C(=O)[C@H](O)CC[C@H]2C2CCCCC2)c(C(=O)O)s1 [Compound 334, 3-((3R,6S)-6-Cyclohexyl-3-hydroxy-2-oxo-piperidin-1-yl)-5-(3,3-dimethyl-but-1-ynyl)-thiophene-2-carboxylic acid] | 3 | ≤ 100 |  |
| CC(C)(C)OC(=O)N[C@H]1CCN(c2ccc(S(=O)(=O)N3CC(=O)N(c4cc(-c5ccccc5)sc4C(=O)O)[C@H](C4CCCCC4)C3)cn2)C1 [Compound 165, 3-{(R)-4-[6-((S)-3-tert-Butoxycarbonylamino-pyrrolidin-1-yl)-pyridine-3-sulfonyl]-2-cyclohexyl-6-oxo-piperazin-1-yl}-5-phenyl-thiophene-2-carboxylic acid] | 2 | ≤ 100 |  |
| CC(C)(C)C#Cc1cc(N2C(=O)CN(S(=O)(=O)c3ccc(N4CCOCC4)nc3)CC2C2CCCCC2)c(C(=O)O)s1 (stereo not shown) [Compound 168, 3-[2-Cyclohexyl-4-(6-morpholin-4-yl-pyridine-3-sulfonyl)-6-oxo-piperazin-1-yl]-5-(3,3-dimethyl-but-1-ynyl)-thiophene-2-carboxylic acid] | 3820 | ≤ 100 |  |
| CN1CCC(N2CC(=O)N(c3cc(-c4ccccc4)sc3C(=O)O)[C@H](C3CCCCC3)C2)CC1 [Compound 271, 3-[(R)-2-Cyclohexyl-4-(1-methyl-piperidin-4-yl)-6-oxo-piperazin-1-yl]-5-phenyl-thiophene-2-carboxylic acid] | 2470 | ≥ 5000 |  |
| O=C(O)c1sc(-c2ccccc2)cc1N1C(=O)CN(C(=O)c2ccccc2)C[C@H]1C1CCCCC1 [Compound 16, 3-((R)-4-Benzoyl-2-cyclohexyl-6-oxo-piperazin-1-yl)-5-phenyl-thiophene-2-carboxylic acid] | 420 | ≥ 5000 |  |
| Cc1cc(S(=O)(=O)N2CC(=O)N(c3cc(-c4ccccc4)sc3C(=O)O)[C@H](C3CCCCC3)C2)cnc1N1CCCC1 [Compound 172, 3-[(R)-2-Cyclohexyl-4-(5-methyl-6-pyrrolidin-1-yl-pyridine-3-sulfonyl)-6-oxo-piperazin-1-yl]-5-phenyl-thiophene-2-carboxylic acid] | 1.2 | ≤ 100 |  |
| O=C(O)c1sc(-c2ccccc2)cc1N1C(=O)CN(S(=O)(=O)c2ccc(-c3ccccc3)cc2)CC1C1CCCCC1 (stereo not shown) [Compound 60, 3-[4-(Biphenyl-4-sulfonyl)-2-cyclohexyl-6-oxo-piperazin-1-yl]-5-phenyl-thiophene-2-carboxylic acid] | 9 |  | 100 to 5000 |
| O=C(O)c1sc(-c2ccccc2)cc1N1C(=O)CN(S(=O)(=O)c2cccnc2)CC1C1CCCCC1 (stereo not shown) [Compound 108, 3-[2-Cyclohexyl-6-oxo-4-(pyridine-3-sulfonyl)-piperazin-1-yl]-5-phenyl-thiophene-2-carboxylic acid] | 37 |  | 100 to 5000 |
| O=C(O)c1sc(-c2ccc(Cl)cc2)cc1N1C(=O)CN(S(=O)(=O)c2ccc(N3CC4CCC(C3)O4)nc2)C[C@H]1C1CCCCC1 [Compound 227, 5-(4-Chloro-phenyl)-3-{(R)-2-cyclohexyl-4-[6-(8-oxa-3-aza-bicyclo[3.2.1]oct-3-yl)-pyridine-3-sulfonyl]-6-oxo-piperazin-1-yl}-thiophene-2-carboxylic acid] | 1 | ≤ 100 |  |
| Cn1nccc1S(=O)(=O)N1CC(=O)N(c2cc(C#CC(C)(C)C)sc2C(=O)O)[C@H](C2CCCCC2)C1 [Compound 254, 3-[(R)-2-Cyclohexyl-4-(2-methyl-2H-pyrazole-3-sulfonyl)-6-oxo-piperazin-1-yl]-5-(3,3-dimethyl-but-1-ynyl)-thiophene-2-carboxylic acid] | 15 |  | 100 to 5000 |
| N[C@H]1CC(=O)N(c2cc(-c3ccccc3)sc2C(=O)O)[C@H](C2CCCCC2)C1 [Compound 28, 3-((2S,4R)-4-Amino-2-cyclohexyl-6-oxo-piperidin-1-yl)-5-phenyl-thiophene-2-carboxylic acid] | 226 | ≥ 5000 |  |
| CC(C)(C)C#Cc1cc(N2C(=O)[C@@](C)(CC(O)CO)OC[C@H]2C2CCCCC2)c(C(=O)O)s1 (stereo partly drawn) [Compound 330, 3-[(2R,5R)-5-Cyclohexyl-2-(2,3-dihydroxy-propyl)-2-methyl-3-oxo-morpholin-4-yl]-5-(3,3-dimethyl-but-1-ynyl)-thiophene-2-carboxylic acid] | 3 | ≤ 100 |  |
| CC(C)(C)C#Cc1cc(N2C(=O)[C@](C)(CCCO)OC[C@H]2C2CCCCC2)c(C(=O)O)s1 [Compound 7, 3-[(2S,5R)-5-Cyclohexyl-2-(3-hydroxy-propyl)-2-methyl-3-oxo-morpholin-4-yl]-5-(3,3-dimethyl-but-1-ynyl)-thiophene-2-carboxylic acid] | 6 | ≤ 100 |  |
| CC(C)(C)C#Cc1cc(N2C(=O)[C@@](C)(CCCO)OC[C@H]2C2CCCCC2)c(C(=O)O)s1 [Compound 311, 3-[(2R,5R)-5-Cyclohexyl-2-(3-hydroxy-propyl)-2-methyl-3-oxo-morpholin-4-yl]-5-(3,3-dimethyl-but-1-ynyl)-thiophene-2-carboxylic acid] | 2 | ≤ 100 |  |
| CC(C)(C)C#Cc1cc(N2C(=O)CN(S(=O)(=O)c3ccc(OC(F)(F)F)cc3)C[C@H]2C2CCCCC2)c(C(=O)O)s1 [Compound 223, 3-[(R)-2-Cyclohexyl-6-oxo-4-(4-trifluoromethoxy-benzenesulfonyl)-piperazin-1-yl]-5-(3,3-dimethyl-but-1-ynyl)-thiophene-2-carboxylic acid] | 9 |  | 100 to 5000 |
| CC(C)(C)N1CCN(c2ccc(S(=O)(=O)N3CC(=O)N(c4cc(-c5ccccc5)sc4C(=O)O)[C@H](C4CCCCC4)C3)cn2)CC1 [Compound 152, 3-{(R)-4-[6-(4-tert-Butyl-piperazin-1-yl)-pyridine-3-sulfonyl]-2-cyclohexyl-6-oxo-piperazin-1-yl}-5-phenyl-thiophene-2-carboxylic acid] | 3 | ≤ 100 |  |
| C[C@@H]1COCCN1c1ccc(S(=O)(=O)N2CC(=O)N(c3cc(-c4ccc(F)cc4)sc3C(=O)O)[C@H](C3CCCCC3)C2)cn1 [Compound 195, 3-{(R)-2-Cyclohexyl-4-[6-((R)-3-methyl-morpholin-4-yl)-pyridine-3-sulfonyl]-6-oxo-piperazin-1-yl}-5-(4-fluoro-phenyl)-thiophene-2-carboxylic acid] | 3 | ≤ 100 |  |
| CC(C)(C)C#Cc1cc(N2C(=O)C(CCCO)CC[C@H]2C2CCCCC2)c(C(=O)O)s1 (stereo partly drawn) [Compound 339, 3-[(S)-6-Cyclohexyl-3-(3-hydroxy-propyl)-2-oxo-piperidin-1-yl]-5-(3,3-dimethyl-but-1-ynyl)-thiophene-2-carboxylic acid] | 8 | ≤ 100 |  |
| COCCNc1ccc(S(=O)(=O)N2CC(=O)N(c3cc(-c4ccccc4)sc3C(=O)O)C(C3CCCCC3)C2)cn1 (stereo not shown) [Compound 78, 3-{2-Cyclohexyl-4-[6-(2-methoxy-ethylamino)-pyridine-3-sulfonyl]-6-oxo-piperazin-1-yl}-5-phenyl-thiophene-2-carboxylic acid] | 5 | ≤ 100 |  |
| CC(C)(C)C#Cc1cc(N2C(=O)C(CN3CCOCC3)OC[C@H]2C2CCCCC2)c(C(=O)O)s1 (stereo partly drawn) [Compound 310, 3-((R)-5-Cyclohexyl-2-morpholin-4-ylmethyl-3-oxo-morpholin-4-yl)-5-(3,3-dimethyl-but-1-ynyl)-thiophene-2-carboxylic acid] | 4 | ≤ 100 |  |
